In experiment [1] the target is T1, Calpain-2 catalytic subunit (Sus scrofa, UniProt P43367).
T1 sequence (P43367 whole entry): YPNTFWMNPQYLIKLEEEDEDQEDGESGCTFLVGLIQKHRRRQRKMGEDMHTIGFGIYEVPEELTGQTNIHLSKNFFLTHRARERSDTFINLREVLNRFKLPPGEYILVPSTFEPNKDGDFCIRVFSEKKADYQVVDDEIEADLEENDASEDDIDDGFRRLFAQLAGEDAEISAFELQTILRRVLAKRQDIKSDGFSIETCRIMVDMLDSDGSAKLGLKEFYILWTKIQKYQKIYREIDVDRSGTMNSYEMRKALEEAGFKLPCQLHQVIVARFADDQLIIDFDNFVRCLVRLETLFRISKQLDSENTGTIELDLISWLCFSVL
Put plainly: pig calpain II inhibitor potency, dose response, biochemical, fluorogenic peptide substrate (AID 1420). It counts as functional.

Experiment [2] addresses Heat shock protein HSP 90-alpha (Homo sapiens, UniProt P07900). Type of experiment: functional, organism-based.
Experiment [3] has as its target T2, Fatty acid synthase (Homo sapiens, UniProt P49327). In words: FAS thioesterase domain inhibitors, dose response, biochemical, endpoint fluorescence intensity, uHTS hits (AID 624327).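 Note: fluorescence from hydrolysis of an O-methyl fluorescein acyl ester substrate by the enzyme.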 It counts as functional.
Experiment [4] has as its target T2, Fatty acid synthase. Put plainly: FAS thioesterase domain inhibitors, dose response, biochemical, kinetic fluorescence intensity (AID 624326).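 Note: rate of fluorescence rise from hydrolysis of a fluorogenic O-methyl fluorescein ester substrate.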 Type of experiment: functional.
The target in experiment [5] is T3, Histone-lysine N-methyltransferase NSD2 (Homo sapiens, UniProt O96028).
T3 sequence (O96028 whole entry): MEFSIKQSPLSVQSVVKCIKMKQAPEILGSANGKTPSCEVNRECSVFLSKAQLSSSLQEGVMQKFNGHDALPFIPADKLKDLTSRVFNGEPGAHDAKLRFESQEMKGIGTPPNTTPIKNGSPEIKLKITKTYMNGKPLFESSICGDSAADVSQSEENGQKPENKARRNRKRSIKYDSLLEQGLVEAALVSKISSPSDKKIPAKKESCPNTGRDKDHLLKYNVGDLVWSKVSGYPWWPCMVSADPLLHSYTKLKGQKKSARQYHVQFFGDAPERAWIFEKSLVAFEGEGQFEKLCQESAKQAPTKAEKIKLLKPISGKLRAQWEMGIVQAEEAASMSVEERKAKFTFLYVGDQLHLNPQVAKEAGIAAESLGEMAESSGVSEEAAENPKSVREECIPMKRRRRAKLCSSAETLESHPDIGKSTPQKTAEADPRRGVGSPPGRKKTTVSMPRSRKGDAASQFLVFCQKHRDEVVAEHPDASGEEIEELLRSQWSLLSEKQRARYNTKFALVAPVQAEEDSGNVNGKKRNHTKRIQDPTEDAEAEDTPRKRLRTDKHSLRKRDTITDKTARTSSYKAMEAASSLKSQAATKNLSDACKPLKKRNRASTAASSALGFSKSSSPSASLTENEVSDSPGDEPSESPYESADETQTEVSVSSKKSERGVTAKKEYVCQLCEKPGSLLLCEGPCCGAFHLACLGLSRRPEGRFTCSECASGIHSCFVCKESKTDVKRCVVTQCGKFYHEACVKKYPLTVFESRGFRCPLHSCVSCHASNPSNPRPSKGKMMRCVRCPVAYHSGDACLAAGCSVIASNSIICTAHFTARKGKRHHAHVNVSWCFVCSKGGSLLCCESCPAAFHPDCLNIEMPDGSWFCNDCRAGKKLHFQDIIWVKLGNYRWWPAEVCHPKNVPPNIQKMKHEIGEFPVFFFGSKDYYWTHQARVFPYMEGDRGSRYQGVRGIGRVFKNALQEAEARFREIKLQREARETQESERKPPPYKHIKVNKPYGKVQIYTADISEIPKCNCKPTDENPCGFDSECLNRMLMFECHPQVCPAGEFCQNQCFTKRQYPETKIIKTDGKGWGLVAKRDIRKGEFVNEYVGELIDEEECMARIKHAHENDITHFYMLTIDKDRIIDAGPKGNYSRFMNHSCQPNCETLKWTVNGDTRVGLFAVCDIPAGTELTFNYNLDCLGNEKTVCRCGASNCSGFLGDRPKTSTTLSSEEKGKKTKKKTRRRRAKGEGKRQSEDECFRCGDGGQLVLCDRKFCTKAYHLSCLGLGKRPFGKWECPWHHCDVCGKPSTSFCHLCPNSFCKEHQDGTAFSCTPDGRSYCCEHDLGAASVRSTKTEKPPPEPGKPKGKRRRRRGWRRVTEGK
It counts as biochemical.

In experiment [6] the target is T4, Long-chain-fatty-acid--AMP ligase FadD28 (Mycobacterium tuberculosis, UniProt P9WQ59).
T4 sequence (P9WQ59 whole entry): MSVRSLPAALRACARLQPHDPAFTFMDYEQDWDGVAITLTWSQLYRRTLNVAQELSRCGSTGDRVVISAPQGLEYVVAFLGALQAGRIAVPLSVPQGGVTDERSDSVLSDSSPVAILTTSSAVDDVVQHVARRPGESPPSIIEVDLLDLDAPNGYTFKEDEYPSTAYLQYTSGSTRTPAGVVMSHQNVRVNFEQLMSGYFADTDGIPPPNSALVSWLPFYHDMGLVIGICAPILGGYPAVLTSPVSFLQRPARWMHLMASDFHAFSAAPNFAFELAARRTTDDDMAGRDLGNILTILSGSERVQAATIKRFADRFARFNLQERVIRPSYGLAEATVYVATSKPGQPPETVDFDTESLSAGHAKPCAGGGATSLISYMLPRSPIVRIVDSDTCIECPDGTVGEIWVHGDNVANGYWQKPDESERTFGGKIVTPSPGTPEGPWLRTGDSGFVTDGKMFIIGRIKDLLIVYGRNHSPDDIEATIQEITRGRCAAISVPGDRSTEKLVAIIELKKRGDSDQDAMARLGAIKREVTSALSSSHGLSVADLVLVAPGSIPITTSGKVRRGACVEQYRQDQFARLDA
Put plainly: Fluorescence polarization aasay to screen for inhibitors that compete for the binding of FadD28 to a bisubstrate Measured in Biochemical System Using Plate Reader - 2147-01_Inhibitor_Dose_CherryPick_Activity. It counts as functional, Mycobacterium tuberculosis H37Rv. For orientation: Fluorescence polarisation rises when a labelled molecule tumbles more slowly, as on binding a larger partner.

Experiment [7] in a line: microbe, parasite or virus in culture. Conditions: Mycobacterium tuberculosis. Type of experiment: functional.
The target of a further experiment is T5, Aminopeptidase N (Plasmodium falciparum FcB1/Columbia, UniProt O96935).
T5 sequence (O96935 whole entry): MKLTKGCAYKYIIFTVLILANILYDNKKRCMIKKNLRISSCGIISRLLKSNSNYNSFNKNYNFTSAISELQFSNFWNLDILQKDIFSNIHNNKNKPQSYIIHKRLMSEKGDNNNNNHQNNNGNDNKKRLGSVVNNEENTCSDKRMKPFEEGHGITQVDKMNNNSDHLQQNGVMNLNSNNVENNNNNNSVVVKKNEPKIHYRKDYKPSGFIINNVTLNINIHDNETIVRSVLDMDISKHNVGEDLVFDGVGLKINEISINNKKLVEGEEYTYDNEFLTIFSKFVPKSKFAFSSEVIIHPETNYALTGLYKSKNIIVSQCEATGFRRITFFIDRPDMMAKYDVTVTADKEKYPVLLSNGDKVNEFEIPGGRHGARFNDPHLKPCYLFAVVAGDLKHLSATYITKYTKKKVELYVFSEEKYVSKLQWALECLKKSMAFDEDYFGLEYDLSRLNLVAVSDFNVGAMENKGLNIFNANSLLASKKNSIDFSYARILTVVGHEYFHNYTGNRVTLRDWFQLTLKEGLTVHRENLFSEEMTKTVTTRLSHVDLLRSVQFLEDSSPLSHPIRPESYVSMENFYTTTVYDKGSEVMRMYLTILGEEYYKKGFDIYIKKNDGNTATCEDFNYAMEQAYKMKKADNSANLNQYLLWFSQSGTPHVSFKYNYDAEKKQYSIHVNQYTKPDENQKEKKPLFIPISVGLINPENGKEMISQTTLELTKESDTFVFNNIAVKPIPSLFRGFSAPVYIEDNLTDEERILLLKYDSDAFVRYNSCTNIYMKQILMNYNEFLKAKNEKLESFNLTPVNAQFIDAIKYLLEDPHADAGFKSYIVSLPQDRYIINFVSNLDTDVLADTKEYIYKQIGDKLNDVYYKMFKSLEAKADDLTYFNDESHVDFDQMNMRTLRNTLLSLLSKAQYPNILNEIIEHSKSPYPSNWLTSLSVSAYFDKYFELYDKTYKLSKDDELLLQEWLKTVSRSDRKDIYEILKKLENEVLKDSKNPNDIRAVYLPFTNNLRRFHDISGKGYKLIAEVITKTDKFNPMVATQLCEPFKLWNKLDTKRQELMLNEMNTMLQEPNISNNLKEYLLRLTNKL
Put plainly: P. falciparum M1AAP inhibitors, biochemical, fluorogenic H-Leu-NHMec substrate, 1536-well (AID 1445). Details: species or system Plasmodium falciparum 3D7, 3D7.

A further experiment has as its system P388/ADR. Put plainly: cells. Type of experiment: functional. Conditions: Mus musculus.
In the next experiment the test system is SN12K1. Put plainly: cells. Conditions: Homo sapiens. It counts as functional.
A further experiment concerns P388. In words: cells. It counts as functional. Conditions: Mus musculus.
The nature of experiment [8]: growth suppression of PTEN-null colon cells, dose response, cell-based, HCT116 PTEN knockout (AID 1047).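 Note: HCT116 colon tumor cells with PTEN knocked out; cells exposed to compound for 60 hours before readout; potency for loss of cell viability measured by luminescence.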 It counts as functional.
Experiment [9] in a line: growth suppression of beta-catenin-knockout colon cells, dose response, cell-based, HCT116, human colon tumor (AID 1045).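 Note: HCT116 colon tumor cells with beta catenin knocked out; cells exposed to compound for 60 hours.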 It counts as functional.

Data on 14 compounds can be found in ChEMBL document CHEMBL1201862, “PubChem BioAssay data set” (2004).

Each structure is given as a SMILES string. Calls of active or inactive are those of the source.

T2 sequence (P49327 whole entry, the tested form may be a part): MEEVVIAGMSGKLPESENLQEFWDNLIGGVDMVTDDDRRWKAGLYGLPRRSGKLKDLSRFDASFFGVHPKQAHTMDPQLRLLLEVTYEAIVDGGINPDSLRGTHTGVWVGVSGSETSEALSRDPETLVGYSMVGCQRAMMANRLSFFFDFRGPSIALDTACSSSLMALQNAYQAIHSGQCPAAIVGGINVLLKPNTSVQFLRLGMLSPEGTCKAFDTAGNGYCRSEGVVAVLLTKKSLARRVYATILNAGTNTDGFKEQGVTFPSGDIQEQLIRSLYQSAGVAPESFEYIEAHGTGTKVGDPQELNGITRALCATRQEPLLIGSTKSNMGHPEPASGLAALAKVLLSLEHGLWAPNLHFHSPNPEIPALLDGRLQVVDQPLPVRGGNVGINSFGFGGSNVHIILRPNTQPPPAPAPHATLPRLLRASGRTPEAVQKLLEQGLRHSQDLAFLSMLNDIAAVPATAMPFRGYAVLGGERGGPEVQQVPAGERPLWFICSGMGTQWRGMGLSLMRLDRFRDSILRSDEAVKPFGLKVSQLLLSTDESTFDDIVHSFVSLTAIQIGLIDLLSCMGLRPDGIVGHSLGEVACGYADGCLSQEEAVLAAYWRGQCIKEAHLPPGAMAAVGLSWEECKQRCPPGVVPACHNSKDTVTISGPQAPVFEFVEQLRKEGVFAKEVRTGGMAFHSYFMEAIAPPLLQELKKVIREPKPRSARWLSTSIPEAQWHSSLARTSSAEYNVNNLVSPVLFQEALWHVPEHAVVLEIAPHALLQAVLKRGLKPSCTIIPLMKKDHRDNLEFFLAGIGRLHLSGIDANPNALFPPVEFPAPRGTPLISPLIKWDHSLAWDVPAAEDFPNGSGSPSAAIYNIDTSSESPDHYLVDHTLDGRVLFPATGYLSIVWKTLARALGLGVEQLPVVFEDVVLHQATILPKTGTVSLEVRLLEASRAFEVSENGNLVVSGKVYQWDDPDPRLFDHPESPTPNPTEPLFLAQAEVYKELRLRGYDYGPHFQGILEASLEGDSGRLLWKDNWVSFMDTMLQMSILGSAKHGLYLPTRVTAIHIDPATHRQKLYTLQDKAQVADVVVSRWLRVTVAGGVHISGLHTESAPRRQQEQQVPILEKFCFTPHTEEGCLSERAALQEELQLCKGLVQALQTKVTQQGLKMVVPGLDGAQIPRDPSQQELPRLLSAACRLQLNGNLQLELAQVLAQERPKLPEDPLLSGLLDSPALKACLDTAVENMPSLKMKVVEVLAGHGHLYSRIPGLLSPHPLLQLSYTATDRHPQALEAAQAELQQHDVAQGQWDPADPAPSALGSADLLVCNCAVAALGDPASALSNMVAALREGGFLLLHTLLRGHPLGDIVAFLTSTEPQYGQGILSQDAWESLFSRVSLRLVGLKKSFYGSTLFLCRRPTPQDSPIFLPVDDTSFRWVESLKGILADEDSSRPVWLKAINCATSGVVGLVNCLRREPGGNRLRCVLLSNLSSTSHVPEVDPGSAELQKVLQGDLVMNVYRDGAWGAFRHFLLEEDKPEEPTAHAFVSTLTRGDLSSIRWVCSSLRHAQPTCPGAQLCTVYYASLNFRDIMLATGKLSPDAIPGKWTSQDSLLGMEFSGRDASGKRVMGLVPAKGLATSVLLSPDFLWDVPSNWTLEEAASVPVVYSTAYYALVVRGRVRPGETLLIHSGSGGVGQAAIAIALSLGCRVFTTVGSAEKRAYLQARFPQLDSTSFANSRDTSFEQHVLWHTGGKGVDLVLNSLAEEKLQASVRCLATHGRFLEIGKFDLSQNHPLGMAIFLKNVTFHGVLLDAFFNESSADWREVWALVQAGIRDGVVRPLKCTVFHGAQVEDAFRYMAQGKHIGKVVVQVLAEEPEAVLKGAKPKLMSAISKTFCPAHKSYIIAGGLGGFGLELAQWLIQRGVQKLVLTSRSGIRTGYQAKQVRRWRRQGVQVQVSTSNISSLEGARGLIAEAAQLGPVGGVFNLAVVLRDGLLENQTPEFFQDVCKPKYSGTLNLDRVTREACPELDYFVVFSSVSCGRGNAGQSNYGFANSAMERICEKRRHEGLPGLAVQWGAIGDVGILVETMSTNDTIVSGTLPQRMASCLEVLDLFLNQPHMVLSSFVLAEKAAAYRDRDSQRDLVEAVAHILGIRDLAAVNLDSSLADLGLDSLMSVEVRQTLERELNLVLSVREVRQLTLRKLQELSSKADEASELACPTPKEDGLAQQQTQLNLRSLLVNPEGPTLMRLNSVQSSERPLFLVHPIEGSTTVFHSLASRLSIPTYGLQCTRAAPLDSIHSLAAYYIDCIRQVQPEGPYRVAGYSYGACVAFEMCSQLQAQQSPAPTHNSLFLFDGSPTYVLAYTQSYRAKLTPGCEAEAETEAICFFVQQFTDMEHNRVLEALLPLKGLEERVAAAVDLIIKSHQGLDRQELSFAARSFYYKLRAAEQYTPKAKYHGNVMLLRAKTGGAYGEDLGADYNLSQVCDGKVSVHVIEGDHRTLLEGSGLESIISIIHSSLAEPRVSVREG

The term IC50 denotes the concentration that inhibits the measured activity by half. Usually AC50 stands for the concentration at which the activity in the assay is half-maximal. On to `O=C1NC(=S)S/C1=C\c1cc2ccccc2nc1N1CCCCC1`, for which the IC50 in [1] was 1.63 µM (not active); at Fatty acid synthase [3] it was 46 µM (inactive); on Fatty acid synthase [4], 11.2 µM (active). For the same compound, the AC50 in experiment [2] is 3.98 µM (active); in experiment [5], 11.1 µM (active). `Cn1cc(/C=N/NC(=O)COc2ccccc2[N+](=O)[O-])c2ccccc21`: the AC50 in [6] is > 100 µM (inactive). As to `COc1cccc(NC(=O)CN2C(=O)CSc3ccc(S(=O)(=O)N4CCCCC4)cc32)c1`, the IC50 at Fatty acid synthase [3] is 8.72 µM (active); on Fatty acid synthase [4], 9.58 µM (active). Regarding `N#C/C(=N\Nc1ccc([N+](=O)[O-])cc1)C(N)=S`, the AC50 in experiment [6] is 19.5 µM (active). With `Cc1cc(C(=O)CCl)c(C)n1-c1cccc([N+](=O)[O-])c1`, the CC50 in experiment [7] is 13.5 µM (active).

Turning to `CCN(c1ccc(NC(=O)CSc2ccc3c(c2)OCCO3)cc1)C(C)C`, the AC50 in experiment [6] is 20.3 µM (active). With `CCCCCn1c(CN2CCN(c3cccc(Cl)c3)CC2)nc2c1c(=O)[nH]c(=O)n2C`, the CC50 in experiment [7] was > 40 µM (active).

Take `CCn1cc(CN2CCC(C(=O)Nc3ccc(Oc4cccnc4)cc3)CC2)c(C)n1`: in [6], the AC50 is 21.7 µM (active). `C/C(NNC(=O)c1ccccc1O)=C1/C(=O)NC(=O)N(Cc2ccccc2)C1=O`: the IC50 at Aminopeptidase N is 19.2 µM (active). The AC50 in experiment [6] was 20.4 µM (active).

A word on the GI50: it is the concentration giving 50% growth inhibition. With `C=CC(=O)NC(=N)NC#N`, the GI50 with P388/ADR is 25.8 µM (inactive); in the experiment on SN12K1, > 100 µM (inactive); in the experiment on P388, 12.8 µM (inactive). In the case of `CC(=O)c1cccc2c1OC(C)C(=O)N2Cc1ccc(Cl)cc1` (stereo unspecified), the values for the IC50 at Fatty acid synthase [3] and on Fatty acid synthase [4] were 9.15 µM (active) and 5.63 µM (active), respectively. In the case of `COc1cc(/C=C2\SC(=O)N(CC(=O)Nc3cccc(C)c3)C2=O)ccc1OC(C)C(=O)O` (stereo unspecified), in experiment [6], the AC50 is 0.583 µM (active). As to `Cc1ccc(S(=O)(=O)c2nnn3c2nc(NCCCN2CCCC2=O)c2ccccc23)cc1C`, the figures for the IC50 at Fatty acid synthase [3] and at Fatty acid synthase [4] were 5.19 µM (active) and 2.85 µM (active), respectively. Usually EC50 stands for the midpoint of the concentration-response curve. For the compound `Cc1oc(-c2cccc(Cl)c2)nc1CN1CCC(C(=O)N2CCN(c3ccccc3F)CC2)CC1`, the CC50 in experiment [7] was 28.9 µM (active). The EC50 in experiment [8] is 15.5 µM (active); in experiment [9], 14.5 µM (active).
